# US20090246249A1, “COATING COMPOSITIONS HAVING IMPROVED PERFORMANCE” (priority 2008, published 2009)
# Square brackets hold non-standard residues; d marks the D form. Ends that are not written are not given here. * marks the point of attachment. Myristoyl = CCCCCCCCCCCCCC(=O)*; Lauroyl = CCCCCCCCCCCC(=O)*; linker = not defined here; Aun = NCCCCCCCCCCC(=O)O
# Columns and labels:
# [1] = Critical micelle concentration (methyl orange assay); format: physicochemical; conditions: pH 7 PBS, methyl orange 0.04 mM, A484
# Protocol: Formation of a composition of the invention, and evidence of macromolecular network formation, may be monitored or quantified by any means known in the art. In this example, macromolecular formation was detected using a standard assay for determining critical micelle concentration (“CMC”). In this assay, a solution containing the composition of the invention (in a range of concentrations in pH 7 phosphate buffered saline (“PBS”)) was mixed with a solution of methyl orange (0.04 mM in PBS), and the absorbance of the mixture was measured at 484 nm (A484). CMC is the concentration at which a sharp decrease in absorbance at A484 is observed, a change in the optical properties of methyl orange when trapped in a hydrophobic phase, such as caused by self-association as a macromolecular network (Table 7, “CMC”). Also included in this assay were an assay control peptide having an amino acid sequence of SEQ ID NO:122 (Table 7, “Control”), and compound 119 (a PEGylated peptide, the peptide having an amino acid sequence of SEQ ID NO:122, as described in more detail in Example 6 herein).
# [2] = Retention of binding to metal bead after incubation in 10% BSA with 10 mM guanidinium chloride (mimics human plasma); conditions: 18 hour incubation in 10% BSA + 10 mM guanidinium chloride, 37° C.; comparator SEQ ID NO:122
# Excerpt: In this example, illustrated are unexpected beneficial properties of the composition of the invention, including but not limited to, one or more improved biophysical properties. Such one or more unexpected beneficial properties of a composition of the invention may comprise an increase in stability. An increase in stability may comprise any one or more of resistance to chemical denaturation, resistance to proteolytic degradation, improved retention to a substrate (e.g., resistance to being competed off a substrate to which it is bound, such as by proteins or other biomolecules found in body tissues). Thus, to ascertain a beneficial property of a composition of the invention, it is compared to the properties of a component of the composition-namely, a substrate-binding peptide by itself (e.g., without fatty acid covalently coupled thereto). An assay was developed that, from our direct comparisons (see, e.g., discussion of FIG. 2 below, and Example 7 herein), mimicked the effect of incubation of substrate-binding peptide with human plasma on stability of binding of a substrate-binding peptide to its substrate. The assay utilized incubations in the presence of 10% bovine serum album (BSA) with 10 mM guanidinium chloride. The high BSA concentration mimics the elevated albumin content of human plasma, and the guanidinium chloride is used to compete with any charged interactions involved in binding of the substrate-binding peptide to its substrate.
# In this assay, two immunoassay plates were prepared for a “side-by-side” comparison of binding of a test sample (substrate-binding peptide or composition of the invention) to its substrate with or without the presence of 10% BSA with 10 mM guanidinium chloride. The wells of each 96-well polypropylene plate were incubated with 350 μl BSA 1% in PBS for 30 minutes at 20° C. with 500 rpm shaking. To each well was added one acetone-cleaned 3/32″ 316LVM stainless steel bead, followed by addition of dilutions in PBS of the test sample in a range of concentrations starting from 10 μM. Final volume in each well was 200 μl. The plates were incubated for 1 hour at 20° C. with 500 rpm shaking to allow for the binding to occur. The beads were washed 3 times with 250 μl PBS using a plate washer. […]
# In the immunoassay for detecting binding without the presence of 10% BSA with 10 mM guanidinium chloride, added to each well was 200 μl of streptavidin AP (AP is alkaline phosphatase) at 1/200 in TBS+1% BSA. […] When color has developed, each well was read at OD405 nm in endpoint mode using a plate reader. […] When color has developed, the wells were read at OD405 nm in endpoint mode using a plate reader. […]
# [3] = system: Staphylococcus aureus strain MZ100; assay: Tibia pin assay: coated titanium pins with vancomycin, bacterial cfu count; format: cell-based; design: key: —: “−” means no cfus; “many” means too many cfus to count, as they converge into one spot; conditions: pin coated with test sample + vancomycin
# Excerpt: In this assay, titanium pins were used as a model for tibia pins. Briefly, sterile pins were first coated with biofunctional composition (“SEQ ID NO:124-linker-SEQ ID NO:122”) comprising a substrate-binding peptide having binding specificity for vancomycin (“SEQ ID NO:124”) linked to a substrate-binding peptide having binding specificity for metal (“SEQ ID NO:122”), or a composition of the invention formed from compound comprising the biofunctional composition covalently coupled to fatty acid. The respective coatings also include vancomycin bound thereto. The coated pins were then placed in a silicone tube containing liquid bacterial growth medium and inoculated with bacteria. After incubation, the pins were removed, and then the liquid growth medium was serially diluted. The serial dilutions were inoculated onto bacterial culture plates, the plates were incubated, and counted on the plates were bacterial colonies.
# In this assay, test samples (biofunctional composition (Table 6, “BC”) or compositions 133, 134, 135, 136 139) each were used to coat a pin by incubating the test sample (in a range of from about 0.8 mM to about 1 mM) with 2.5 μl of a 10 mM vancomycin solution and PBS to a final volume of 250 μl in a microtube (3 pins per tube) for 60 minutes at room temperature with occasional agitation. In a piece of silicone tubing (1.5 mm inner diameter, 50 mm long), added is tryptic soy broth+0.2% glucose, the coated pin, and 103 colony forming units (cfu) of Staphylococcus aureus strain MZ100 in either a 20 μl inoculum, 40 μl inoculum, or 60 μl inoculum. The tubing is clamped closed, and the tubing is incubated for 37° C. for 3 hours. After 3 hours, serial dilutions (1:10, 1:100, 1:1000) were made of the culture media from each tubing, and 10 μl of the undiluted culture medium and of each dilution were spotted onto the bacterial culture plate. The bacterial culture plate was incubated overnight at 37° C., and then the cfus were counted. The results, a composite of different assay runs, are shown in Table 6 (“−” means no cfus; “many” means too many cfus to count, as they converge into one spot; “NT” means not tested).
substance,measurement,setting,value
"119: Fmoc-NH-(PEG)27-CO2H covalently coupled to a peptide having the amino acid sequence of SEQ ID NO:122 (PEGylated peptide) (SSHRTNHKKNNPKKKNKTRGSSGK; also: Fmoc-NH-(PEG)27-CO2H coupled, site not given here) [Compound 119, reference compound]",CMC,[1],>>10 μM
same,"retention of binding of substrate-binding peptide component to its substrate, compared to substrate-binding peptide alone (FIG. 1)",[2],failed to promote retention of binding
"120: amino acid sequence YWAWAYAW (SEQ ID NO:129) covalently coupled to a peptide having the amino acid sequence of SEQ ID NO:122 (YWAWAYAWSSHRTNHKKNNPKKKNKTRGSSGK) [Compound 120, reference compound]","retention of binding of substrate-binding peptide component to its substrate, compared to substrate-binding peptide alone (FIG. 1)",[2],failed to promote retention of binding
AUD-AUD-AUD-AUD-SEQ ID NO:122 ([Aun][Aun][Aun][Aun]SSHRTNHKKNNPKKKNKTRGSSGK) [Compound 122],"retention of binding of substrate-binding peptide component to its substrate, compared to substrate-binding peptide alone (FIG. 1)",[2],significantly improved retention of binding
AUD-AUD-K-AUD-AUD-AUD-AUD-SEQ ID NO:122 ([Aun][Aun]K[Aun][Aun][Aun][Aun]SSHRTNHKKNNPKKKNKTRGSSGK) [Compound 123],CMC,[1],0.04 µM
same,"retention of binding of substrate-binding peptide component to its substrate, compared to substrate-binding peptide alone (FIG. 1)",[2],significantly improved retention of binding
Ac-Y-AUD-AUD-AUD-AUD-AUD-AUD-SEQ ID NO:122 (Ac-Y[Aun][Aun][Aun][Aun][Aun][Aun]SSHRTNHKKNNPKKKNKTRGSSGK) [Compound 132],CMC,[1],0.123 µM
LAU-SEQ ID NO:122 (Lauroyl-SSHRTNHKKNNPKKKNKTRGSSGK) [Compound 126],CMC,[1],0.37 µM
MYR-SEQ ID NO:122 (Myristoyl-SSHRTNHKKNNPKKKNKTRGSSGK) [Compound 125],CMC,[1],0.123 µM
MYR-linker-SEQ ID NO:122 ({Myristoyl-linker}-SSHRTNHKKNNPKKKNKTRGSSGK; reading uncertain) [Compound 127],CMC,[1],0.123 µM
"PALM-PALM-PALM-linker-SEQ ID NO:122 (SSHRTNHKKNNPKKKNKTRGSSGK; also: three palmitoyl groups and linker, attachment not placed) [Compound 129]",CMC,[1],0.123 µM
"SSHRTNHKKNNPKKKNKTRGSSGK [Compound 130, AUD-AUD-AUD-AUD-AUD-AUD-SEQ ID NO:122]",CMC,[1],0.041 µM
"SSHRTNHKKNNPKKKNKTRGSSGK [Compound 131, AUD-AUD-AUD-AUD-AUD-AUD-AUD-AUD-SEQ ID NO:122]",CMC,[1],0.37 µM
SSHRTNHKKNNPKKKNKTRGSSGK [SEQ ID NO:122],CMC,[1]; listed as Control,>>10 μM
"SSSCLIDMYGVCHNFDGAYDSSRG [Compound 134, AUD-AUD-AUD-AUD-SEQ ID NO:124-linker-SEQ ID NO:122]",cfu 1:10,[3]; 20 μl inoculum,—
same,cfu 1:100,[3]; 20 μl inoculum,—
same,cfu 1:1000,[3]; 20 μl inoculum,—
same,cfu undiluted,"[3]; 20 μl inoculum, 103 colony forming units, 3 hours 37° C.",—
same,cfu 1:10,[3]; 40 μl inoculum,6 cfu
same,cfu 1:100,[3]; 40 μl inoculum,1 cfu
same,cfu 1:1000,[3]; 40 μl inoculum,—
same,cfu undiluted,[3]; 40 μl inoculum,many
same,cfu 1:10,[3]; 60 μl inoculum,17 cfu
same,cfu 1:100,[3]; 60 μl inoculum,5 cfu
same,cfu 1:1000,[3]; 60 μl inoculum,—
same,cfu undiluted,[3]; 60 μl inoculum,many
"[MYR]2-K-linker-SEQ ID NO:122 (SSHRTNHKKNNPKKKNKTRGSSGK; also: lysine bearing two myristoyl groups plus linker, attachment not placed) [Compound 128]",CMC,[1],0.123 µM
